# Source: ChEMBL document CHEMBL5696442, “Discovery of type II inhibitors of TGFβ-activated kinase 1 (TAK1) and mitogen-activated protein kinase kinase kinase kinase 2 (MAP4K2)” (J Med Chem, 2015)
# The source made the active and inactive calls. The calls are words filed in the database; no cut-off is given here.
# Experiments:
# [1] = target: Glycogen synthase kinase-3 beta (Homo sapiens) (UniProt P49841); assay: Inhibition of GSK3B Lys2 labeling site in human Huh-7 cell lysate at 1 uM by KiNativ Profiling analysis relative to control; type: subcellular
# [2] = target: T1, Phosphatidylinositol 5-phosphate 4-kinase type-2 gamma (Homo sapiens) (UniProt Q8TBX8); assay: Inhibition of PIP4K2C ATP labeling site harbouring TLVIKEVSSEDIADMHSNLSNYHQYIVK in human Huh-7 cell lysate at 1 uM by KiNativ Profiling analysis relative to control; type: subcellular
# T1 sequence (whole entry): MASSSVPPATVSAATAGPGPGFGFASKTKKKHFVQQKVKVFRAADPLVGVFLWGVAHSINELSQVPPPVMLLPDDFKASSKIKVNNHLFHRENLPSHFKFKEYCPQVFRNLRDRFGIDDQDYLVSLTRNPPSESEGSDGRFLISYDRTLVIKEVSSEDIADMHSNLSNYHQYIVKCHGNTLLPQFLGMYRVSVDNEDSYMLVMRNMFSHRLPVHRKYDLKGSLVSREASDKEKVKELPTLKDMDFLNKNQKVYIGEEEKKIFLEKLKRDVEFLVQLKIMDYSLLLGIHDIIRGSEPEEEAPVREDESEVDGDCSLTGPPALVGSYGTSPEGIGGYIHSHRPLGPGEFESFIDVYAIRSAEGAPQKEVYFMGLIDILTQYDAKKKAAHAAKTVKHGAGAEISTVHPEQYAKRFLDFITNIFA
# [3] = target: Ribosomal protein S6 kinase alpha-3 (Homo sapiens) (UniProt P51812); assay: Inhibition of RSK2 domain2 Lys1 labeling site in human Huh-7 cells at 1 uM by KiNativ Profiling analysis relative to control; type: cell-based
# [4] = target: Aurora kinase B (Homo sapiens) (UniProt Q96GD4); assay: Inhibition of AURKB (unknown origin) at 1 uM by Ambit Kinomescan binding assay relative to control
# [5] = target: Mitogen-activated protein kinase 9 (Homo sapiens, UniProt P45984); assay: Inhibition of JNK2 (unknown origin) at 1 uM by Ambit Kinomescan binding assay relative to control
# [6] = target: T2, Kinase suppressor of Ras 1 (Homo sapiens) (UniProt Q8IVT5); assay: Inhibition of KSR1 ACT labeling site harbouring SKNVFYDNGKVVITDFGLFGISGVVR in human A-375 cells at 5 uM by KiNativ Profiling analysis relative to control; type: cell-based
# T2 sequence (whole entry): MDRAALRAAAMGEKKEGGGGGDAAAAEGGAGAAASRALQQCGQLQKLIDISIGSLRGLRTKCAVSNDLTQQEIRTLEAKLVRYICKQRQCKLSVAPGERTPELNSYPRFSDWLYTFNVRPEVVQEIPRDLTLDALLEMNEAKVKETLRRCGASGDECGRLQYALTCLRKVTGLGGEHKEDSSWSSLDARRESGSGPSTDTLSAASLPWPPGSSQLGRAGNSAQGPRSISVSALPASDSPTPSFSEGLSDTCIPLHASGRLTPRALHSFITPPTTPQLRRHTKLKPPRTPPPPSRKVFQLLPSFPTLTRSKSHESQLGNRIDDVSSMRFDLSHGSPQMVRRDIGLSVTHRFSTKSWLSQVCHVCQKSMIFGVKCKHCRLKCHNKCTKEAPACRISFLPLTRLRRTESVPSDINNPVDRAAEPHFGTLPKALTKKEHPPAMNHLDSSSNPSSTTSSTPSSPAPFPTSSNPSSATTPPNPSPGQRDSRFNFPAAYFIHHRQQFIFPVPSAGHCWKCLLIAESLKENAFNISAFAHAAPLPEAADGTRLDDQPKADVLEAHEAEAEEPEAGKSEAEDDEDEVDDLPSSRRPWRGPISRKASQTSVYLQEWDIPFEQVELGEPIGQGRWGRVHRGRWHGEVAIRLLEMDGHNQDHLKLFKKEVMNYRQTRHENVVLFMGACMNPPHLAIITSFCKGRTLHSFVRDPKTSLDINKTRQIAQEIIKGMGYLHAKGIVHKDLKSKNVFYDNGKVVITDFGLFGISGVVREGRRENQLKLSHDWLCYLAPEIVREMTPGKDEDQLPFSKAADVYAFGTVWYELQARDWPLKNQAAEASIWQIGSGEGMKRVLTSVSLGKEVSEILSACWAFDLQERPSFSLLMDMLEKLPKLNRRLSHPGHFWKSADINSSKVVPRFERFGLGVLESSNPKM
# [7] = target: Protein kinase C iota type (Homo sapiens) (UniProt P41743); assay: Inhibition of PRKCI (unknown origin) at 1 uM by Ambit Kinomescan binding assay relative to control; values are per cent of control
# [8] = system: Receptor-type tyrosine-protein kinase FLT3 (Homo sapiens), P36888 [UNDEFINED MUTATION]; assay: Inhibition of FLT3 ITD mutant (unknown origin) at 1 uM by Ambit Kinomescan binding assay relative to control; values are per cent of control
# [9] = target: AP2-associated protein kinase 1 (Homo sapiens) (UniProt Q2M2I8); assay: Inhibition of AAK1 (unknown origin) at 10 uM by Ambit Kinomescan binding assay
# [10] = system: Mast/stem cell growth factor receptor Kit (Homo sapiens), P10721 [V559D]; assay: Inhibition of KIT V559D mutant (unknown origin) at 10 uM by Ambit Kinomescan binding assay relative to control
# [11] = target: Misshapen-like kinase 1 (Homo sapiens) (UniProt Q8N4C8); assay: Inhibition of MINK (unknown origin) at 10 uM by Ambit Kinomescan binding assay
# [12] = target: Myosin light chain kinase 2, skeletal/cardiac muscle (Homo sapiens) (UniProt Q9H1R3); assay: Inhibition of MYLK2 (unknown origin) at 10 uM by Ambit Kinomescan binding assay relative to control
# [13] = target: Serine/threonine-protein kinase Nek7 (Homo sapiens) (UniProt Q8TDX7); assay: Inhibition of NEK7 ACT labeling site in human A-375 cells at 0.5 uM by KiNativ Profiling analysis relative to control; type: cell-based
# [14] = target: Calcium/calmodulin-dependent protein kinase type II subunit delta (Homo sapiens) (UniProt Q13557); assay: Inhibition of CAMK2d K1 labeling site in human Huh-7 cells at 10 uM by KiNativ Profiling analysis relative to control; type: cell-based
# [15] = target: PKC alpha and beta-2 (Homo sapiens) (UniProt P17252+P05771); assay: Inhibition of PKCalpha/beta K2 labeling site in human Huh-7 cells at 10 uM by KiNativ Profiling analysis relative to control; type: cell-based
# [16] = target: Serine/threonine-protein kinase WNK4 (Homo sapiens) (UniProt Q96J92); assay: Inhibition of Wnk4 K2 labeling site in human Huh-7 cells at 10 uM by KiNativ Profiling analysis relative to control; type: cell-based
# [17] = target: Mitogen-activated protein kinase kinase kinase kinase 4 (Homo sapiens, UniProt O95819); assay: Inhibition of ZC1/HGK K1 labeling site harbouring TGQLAAIKVMDVTEDEEEEIKLEINMLK in human Huh-7 cells at 1 uM by KiNativ Profiling analysis relative to control; type: cell-based
# Mitogen-activated protein kinase kinase kinase kinase 4, sequence (O95819 2-1239 limits assumed): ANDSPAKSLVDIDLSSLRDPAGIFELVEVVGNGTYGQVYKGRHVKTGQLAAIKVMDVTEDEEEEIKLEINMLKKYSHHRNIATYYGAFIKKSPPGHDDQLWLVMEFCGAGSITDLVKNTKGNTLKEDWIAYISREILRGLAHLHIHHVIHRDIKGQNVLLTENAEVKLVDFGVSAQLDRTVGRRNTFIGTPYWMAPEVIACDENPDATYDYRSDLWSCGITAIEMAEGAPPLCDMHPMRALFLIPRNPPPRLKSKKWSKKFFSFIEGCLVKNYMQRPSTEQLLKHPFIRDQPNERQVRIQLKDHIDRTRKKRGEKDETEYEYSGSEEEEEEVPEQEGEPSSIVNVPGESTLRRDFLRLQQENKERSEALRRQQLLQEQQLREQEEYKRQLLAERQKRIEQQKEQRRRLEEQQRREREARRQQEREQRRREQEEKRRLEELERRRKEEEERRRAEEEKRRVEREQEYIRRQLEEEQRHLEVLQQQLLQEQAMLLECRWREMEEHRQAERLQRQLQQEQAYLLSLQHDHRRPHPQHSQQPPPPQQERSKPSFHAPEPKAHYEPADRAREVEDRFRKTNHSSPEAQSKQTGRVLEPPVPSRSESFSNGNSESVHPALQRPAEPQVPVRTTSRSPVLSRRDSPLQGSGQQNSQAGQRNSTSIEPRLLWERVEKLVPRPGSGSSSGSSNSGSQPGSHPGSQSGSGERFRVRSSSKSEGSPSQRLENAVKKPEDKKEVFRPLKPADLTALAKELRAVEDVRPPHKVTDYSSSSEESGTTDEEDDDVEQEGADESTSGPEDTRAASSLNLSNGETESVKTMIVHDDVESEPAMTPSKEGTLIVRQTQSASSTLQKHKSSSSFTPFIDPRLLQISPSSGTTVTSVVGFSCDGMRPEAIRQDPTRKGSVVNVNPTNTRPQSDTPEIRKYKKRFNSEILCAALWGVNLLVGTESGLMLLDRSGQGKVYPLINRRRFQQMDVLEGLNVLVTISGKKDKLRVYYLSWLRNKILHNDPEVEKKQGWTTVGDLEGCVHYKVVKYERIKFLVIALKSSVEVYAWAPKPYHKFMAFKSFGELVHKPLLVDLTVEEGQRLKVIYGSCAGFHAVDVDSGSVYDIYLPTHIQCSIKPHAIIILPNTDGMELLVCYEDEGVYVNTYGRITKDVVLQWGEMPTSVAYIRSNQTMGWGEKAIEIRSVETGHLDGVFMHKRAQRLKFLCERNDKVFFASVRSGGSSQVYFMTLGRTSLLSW
# Myosin light chain kinase 2, skeletal/cardiac muscle (Homo sapiens), sequence (Q9H1R3 whole entry): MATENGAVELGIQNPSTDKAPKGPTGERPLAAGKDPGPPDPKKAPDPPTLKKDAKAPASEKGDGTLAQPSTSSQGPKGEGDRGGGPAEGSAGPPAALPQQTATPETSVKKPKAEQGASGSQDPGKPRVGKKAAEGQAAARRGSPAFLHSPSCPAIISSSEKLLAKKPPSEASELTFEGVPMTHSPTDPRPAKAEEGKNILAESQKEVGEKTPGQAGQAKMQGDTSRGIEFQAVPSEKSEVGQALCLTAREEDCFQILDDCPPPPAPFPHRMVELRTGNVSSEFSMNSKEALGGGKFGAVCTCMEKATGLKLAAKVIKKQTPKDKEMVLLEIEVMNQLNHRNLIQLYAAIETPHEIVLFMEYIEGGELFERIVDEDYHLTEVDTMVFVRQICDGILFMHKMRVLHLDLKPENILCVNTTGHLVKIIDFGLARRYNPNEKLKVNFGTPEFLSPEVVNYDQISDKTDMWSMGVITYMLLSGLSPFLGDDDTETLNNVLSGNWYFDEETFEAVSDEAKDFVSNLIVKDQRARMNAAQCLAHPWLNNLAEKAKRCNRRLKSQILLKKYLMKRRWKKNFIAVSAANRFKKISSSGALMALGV
# Mitogen-activated protein kinase 9, sequence (P45984 whole entry, looked up): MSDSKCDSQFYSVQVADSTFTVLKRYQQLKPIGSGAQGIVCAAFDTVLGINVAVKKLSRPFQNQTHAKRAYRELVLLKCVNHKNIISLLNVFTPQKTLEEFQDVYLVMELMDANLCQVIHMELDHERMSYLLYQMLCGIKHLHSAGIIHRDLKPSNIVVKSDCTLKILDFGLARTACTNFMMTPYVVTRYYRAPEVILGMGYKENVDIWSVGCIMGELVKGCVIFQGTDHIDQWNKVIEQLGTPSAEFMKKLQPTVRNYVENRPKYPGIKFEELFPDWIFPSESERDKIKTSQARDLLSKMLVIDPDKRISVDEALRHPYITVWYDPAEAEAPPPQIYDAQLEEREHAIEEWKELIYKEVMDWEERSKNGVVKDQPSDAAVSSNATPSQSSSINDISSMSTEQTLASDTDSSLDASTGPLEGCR
# Protein kinase C iota type (Homo sapiens), sequence (P41743 whole entry): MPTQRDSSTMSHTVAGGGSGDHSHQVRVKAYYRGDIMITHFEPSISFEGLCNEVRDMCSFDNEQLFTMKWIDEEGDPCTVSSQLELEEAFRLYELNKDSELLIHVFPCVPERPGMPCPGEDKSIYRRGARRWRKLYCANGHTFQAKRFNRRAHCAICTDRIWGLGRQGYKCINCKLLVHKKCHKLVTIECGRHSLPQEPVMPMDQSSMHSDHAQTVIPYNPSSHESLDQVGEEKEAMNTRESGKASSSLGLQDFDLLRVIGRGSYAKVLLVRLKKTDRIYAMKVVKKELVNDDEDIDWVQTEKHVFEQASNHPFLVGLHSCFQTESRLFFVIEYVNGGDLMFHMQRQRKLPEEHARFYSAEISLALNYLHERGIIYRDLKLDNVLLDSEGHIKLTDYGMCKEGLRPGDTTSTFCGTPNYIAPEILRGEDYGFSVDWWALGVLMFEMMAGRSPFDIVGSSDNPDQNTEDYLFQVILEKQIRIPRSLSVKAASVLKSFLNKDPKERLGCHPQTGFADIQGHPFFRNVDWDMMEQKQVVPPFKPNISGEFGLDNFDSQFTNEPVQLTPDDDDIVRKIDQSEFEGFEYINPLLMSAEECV
# Calcium/calmodulin-dependent protein kinase type II subunit delta (Homo sapiens), sequence (Q13557 whole entry): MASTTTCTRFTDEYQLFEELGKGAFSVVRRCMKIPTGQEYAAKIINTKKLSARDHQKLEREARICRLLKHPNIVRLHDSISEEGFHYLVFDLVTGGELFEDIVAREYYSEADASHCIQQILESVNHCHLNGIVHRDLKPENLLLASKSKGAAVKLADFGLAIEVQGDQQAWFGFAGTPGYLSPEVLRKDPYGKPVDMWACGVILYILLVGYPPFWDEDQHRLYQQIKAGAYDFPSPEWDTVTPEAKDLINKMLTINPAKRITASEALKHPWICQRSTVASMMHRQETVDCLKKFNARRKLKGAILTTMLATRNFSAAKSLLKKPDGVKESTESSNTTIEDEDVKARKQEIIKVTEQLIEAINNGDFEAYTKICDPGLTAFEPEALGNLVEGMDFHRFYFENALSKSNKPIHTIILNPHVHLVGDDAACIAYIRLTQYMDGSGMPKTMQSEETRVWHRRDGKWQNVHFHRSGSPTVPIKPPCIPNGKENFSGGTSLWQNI
# Misshapen-like kinase 1 (Homo sapiens), sequence (Q8N4C8 whole entry, looked up): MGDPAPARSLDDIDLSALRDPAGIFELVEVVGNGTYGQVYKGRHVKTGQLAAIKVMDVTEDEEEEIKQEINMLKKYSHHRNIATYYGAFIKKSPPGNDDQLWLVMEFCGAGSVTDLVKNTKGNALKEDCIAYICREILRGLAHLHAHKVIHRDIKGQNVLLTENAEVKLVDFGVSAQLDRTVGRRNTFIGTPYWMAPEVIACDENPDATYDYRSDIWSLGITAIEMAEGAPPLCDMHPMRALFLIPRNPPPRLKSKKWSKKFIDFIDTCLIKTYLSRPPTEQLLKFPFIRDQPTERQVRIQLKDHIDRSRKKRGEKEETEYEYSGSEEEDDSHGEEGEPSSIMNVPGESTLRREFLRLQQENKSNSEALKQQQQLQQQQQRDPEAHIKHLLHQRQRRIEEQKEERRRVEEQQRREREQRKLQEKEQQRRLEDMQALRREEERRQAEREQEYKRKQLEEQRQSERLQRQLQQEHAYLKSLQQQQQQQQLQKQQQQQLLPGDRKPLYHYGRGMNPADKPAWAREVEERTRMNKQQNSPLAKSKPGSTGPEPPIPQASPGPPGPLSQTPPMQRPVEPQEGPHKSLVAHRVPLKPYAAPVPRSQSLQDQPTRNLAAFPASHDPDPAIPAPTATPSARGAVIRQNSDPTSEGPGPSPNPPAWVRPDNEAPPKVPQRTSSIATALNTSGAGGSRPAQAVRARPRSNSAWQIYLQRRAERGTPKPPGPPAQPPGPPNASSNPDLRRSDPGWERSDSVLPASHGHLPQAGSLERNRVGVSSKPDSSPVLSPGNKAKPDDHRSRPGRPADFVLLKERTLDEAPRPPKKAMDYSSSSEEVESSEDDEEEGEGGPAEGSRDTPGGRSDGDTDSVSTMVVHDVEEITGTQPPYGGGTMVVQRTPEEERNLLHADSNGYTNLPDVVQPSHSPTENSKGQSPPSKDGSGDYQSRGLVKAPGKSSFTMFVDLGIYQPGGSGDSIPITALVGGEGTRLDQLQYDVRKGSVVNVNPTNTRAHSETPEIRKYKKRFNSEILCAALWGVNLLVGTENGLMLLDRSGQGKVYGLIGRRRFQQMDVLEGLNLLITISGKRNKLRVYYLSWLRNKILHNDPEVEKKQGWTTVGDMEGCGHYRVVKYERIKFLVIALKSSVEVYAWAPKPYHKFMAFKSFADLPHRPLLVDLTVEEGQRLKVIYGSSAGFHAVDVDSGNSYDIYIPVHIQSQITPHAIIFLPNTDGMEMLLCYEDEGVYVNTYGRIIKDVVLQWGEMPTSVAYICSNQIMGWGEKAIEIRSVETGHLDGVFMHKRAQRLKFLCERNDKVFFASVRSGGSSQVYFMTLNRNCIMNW
# Serine/threonine-protein kinase Nek7 (Homo sapiens), sequence (Q8TDX7 whole entry, looked up): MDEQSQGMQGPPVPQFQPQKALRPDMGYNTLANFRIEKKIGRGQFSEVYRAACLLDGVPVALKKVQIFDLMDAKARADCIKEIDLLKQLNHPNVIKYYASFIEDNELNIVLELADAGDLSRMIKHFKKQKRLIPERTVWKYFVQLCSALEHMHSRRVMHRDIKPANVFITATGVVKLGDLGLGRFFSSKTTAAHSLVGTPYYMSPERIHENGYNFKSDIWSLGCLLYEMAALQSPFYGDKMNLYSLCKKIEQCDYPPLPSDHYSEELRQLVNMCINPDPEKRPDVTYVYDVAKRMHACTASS
structure (smiles),measurement,setting,value
CNc1cc(Oc2cc(C(=O)Nc3cc(N4CCN(C)CC4)cc(C(F)(F)F)c3)ccc2C)ncn1,inhibition,[1],6%
same,inhibition,[2],-3.6%
same,inhibition,[3],4.1%
CCN1CCN(Cc2ccc(NC(=O)c3ccc(C)c(/C=C/c4cnc5[nH]ccc5c4OC)c3)cc2C(F)(F)F)CC1,inhibition,[4],65%
same,inhibition,[5],6.6%
same,inhibition,[6],1.7%
same,residual activity,[7],100%
same,residual activity,[8],1.4%
CCN1CCN(Cc2ccc(NC(=O)c3ccc(C)c(Oc4ccnc5[nH]ccc45)c3)cc2C(F)(F)F)CC1,inhibition,[9],inactive
same,inhibition,[10],0%
same,inhibition,[11],inactive
same,inhibition,[12],8.4%
same,inhibition,[13],1.6%
same,inhibition,[14],0.1%
same,inhibition,[15],1.3%
same,inhibition,[16],-1.5%
same,inhibition,[17],7.6%
